From US20240325548A1, “DYNAMIC BIOACTIVE SCAFFOLDS AND THERAPEUTIC USES THEREOF AFTER CNS INJURY” (Northwestern University, priority 2021, published 2024)

Assays:
[1] = tested on: hNPCs; assay: hNPC attachment, proliferation and phenotype on co-assembled PA coatings (EdU, SOX-2, PAX6); assay type: cell-based, human
Description: Neural progenitor cells (NPCs) were differentiated from human embryonic stem cells HUES 64 (Harvard University) (see FIG. 2C). In short, 70% confluent stem cell cultures grown in Matrigel (Thermo Fisher) coated plates with mTESR medium (STEMCELL Technologies), were switched to N2B27 medium (50% DMEM: F12, 50% Neurobasal, supplemented with NEAA, Glutamax, N2 and B27; Gibco) containing dual SMAD inhibitors (SB431542, DNSK International and LDN-193189, Tocris) for 12 days to induce the generation of neural progenitors. Neuralization was enhanced by supplementing medium with laminin from day 5 to 12. Next, neural rosettes were dissociated with neural rosette selection reagent (STEMCELL Technologies) to obtain NPCs, which are expanded in N2B27 (Gibco) medium supplemented with bFGF (Millipore). For experimentation in the different PA platforms, NPCs were dissociated with Accutase (Innovative Cell technology), and cultured in the distinct platforms with DMEM: F12+N2+B27 medium with hyclone penicillin-streptomycin (GE Healthcare) and ascorbic acid (0.2 μg/mL; Sigma-Aldrich).
(§1) For IKVAV PA treatments, hNPCs were cultured on ornithine coatings (German Glass, Chemglass Life Science) in 6 well and 24 well plates at a density of 500,000 cells/well and 80,000 cells/well respectively. hNPCs were treated with […] of IKVAV PAs ([PA]=6 mM, [KCl]=3 mM, [NaCl]=150 mM) or recombinant laminin protein (10 mg/mL) in solution. IKVAV PA2 and IKVAV PA5 were also mixed with 5 mM CaCl2) at a ratio PA:CaCl2) 6:1 to treat hNPCs. For 2D experiments, hNPCs were cultured on the different IKVAV PAs or laminin coatings in 6 well and 24 well plates at densities mentioned above. For co-assembled experiments, hNPCs were cultured on the different co-assembled PA coatings in 6 well and 24 well plates at a density of 400,000 cells/well and 50,000 cells/well respectively.
(§2) hNPCs were fed 4 times a week with DMEM: F12+N2^+B27 medium with hyclone penicillin-streptomycin and ascorbic acid. After 24 h, 72 h 1- or 2-weeks in vitro, cell lysates were harvested or fixed for WB or ICC, respectively. Three replicates per condition and at least three independent experiments were carried out for all conditions investigated.
For the hNPCs proliferation assay, 2 μM of the thymidine analog 5-ethynyl-2′-deoxyuridine (EdU, Thermo Fisher) was incorporated into the culture medium for 24 h. Cells were fixed at the indicated time points in 4% paraformaldehyde (PFA) for 15 min at RT. After fixation, samples were washed in PBS twice and then stained with Click-iT™ EdU Cell Proliferation Kit containing 11 mM CuSO4 (from 50 mM stock) and 1 μg/mL of Alexa Fluor-555 azide (from 0.5 mg/mL, Thermo Fisher) for 30 minutes at RT in the dark. The staining cocktail was then removed, and cells were washed with PBS. Then, hNPCs were counterstained with anti-rabbit SOX-2 antibody following the immunofluorescence protocol described below and 4′, 6-diamidino-2-phenylindole (DAPI, Thermo Fisher) at 5 μg/mL in PBS for 20 min at RT. The cells were then washed with PBS and mounted with Immu-Mount (Fisher Scientific) for imaging.
For immunofluorescence, fixed primary cultures or free-floating tissue sections (40 m Thick) were incubated in blocking buffer containing 0.02% Triton-X (Sigma-Aldrich), 1% NHS (Gibco) and PBS 1× (Gibco). Samples were incubated with primary antibodies over night at 4° C. Alexa-488, Alexa-555 and/or Alexa-647 (1:500, Thermofisher) were used as secondary antibodies. DAPI (1:500, Thermofisher) was used to stain nuclei. […]

[2] = target: T1, FGFR1 (Homo sapiens, UniProt P11362); assay: FGF-2 intracellular signaling pathway in HUVECs (WB p-FGFR1, p-ERK1/2); assay type: cell-based
T1 construct: host or cells: HUVECs (pooled donor)
Description: (§3) Human umbilical vein cord (HUVECs) (pooled donor, LONZA, Allendale, New Jersey) were grown to 70-80% confluence for each experiment (P2-P4) in a T-75 cell culture flask using complete media (Endo GRO-VEGF Complete Culture Media Kit, Millipore) supplemented with 1% penicillin-streptomycin. Media was changed every 3 days.
Treatments were prepared by dissolving the co-assembled PAs in media without serum. The total concentration of FGF2 PAs per treatment was 0.5 μM. FGF-2 native protein (Peprotech) was resuspended and used at 0.25 nM. For western blot experiments, HUVEC were cultured in 12 well plates at a density of approximately 150,000 cells/well for 2 days in vitro before being treated. Treatments were added for 2 h-2 days in vitro before cell lysates were harvested or cells were fixed. For PA coatings, PAs were painted on the coverslips (German Glass, Chemglass Life Science) or tissue culture plates as described in the Co-assembled PA preparation section. Three replicates per condition and three independent experiments were carried out for all conditions investigated.
(§4) RIPA buffer (Thermofisher) with a cocktail of Halt Protease and Phosphatase Inhibitors (Thermofisher) was used to extract protein from in vitro and in vivo samples. For in vivo studies, spinal cord tissue was then sonicated using a horn sonicator (Branson) to break up the tissue. […]

[3] = tested on: human umbilical vein vascular endothelial cells (HUVECs); assay: HUVEC branching / capillary network formation; assay type: cell-based; settings: within 48 h of culture
Description: as §3
Treatments were prepared by dissolving the co-assembled PAs in media without serum. The total concentration of FGF2 PAs per treatment was 0.5 μM. FGF-2 native protein (Peprotech) was resuspended and used at 0.25 nM. For western blot experiments, HUVEC were cultured in 12 well plates at a density of approximately 150,000 cells/well for 2 days in vitro before being treated. Treatments were added for 2 h-2 days in vitro before cell lysates were harvested or cells were fixed. […]
To assess in vitro tubulogenesis and in vivo angiogenesis, an ImageJ (Fiji) script was established to automatically calculate 1) area fraction of blood vessels, 2) blood vessels length, and 3) number of branches. Images were processed, binarized and analyzed. Newly generated blood vessels in vivo were identified by quantifying the amount of CD31/BrdU double-positive cells within the region of interest. […] The quantified cross sections were chosen as the first serial cross sections within the lesion that had DiI staining.

[4] = target: T2, FGFR1 and ITGB1 (Homo sapiens, UniProt P11362); assay: p-FGFR1 and active ITGB1 in hNPCs on co-assembled PA coatings (WB); assay type: cell-based
T2 construct: endogenous in cells; host or cells: hNPCs differentiated from human embryonic stem cells HUES 64, seeded on co-assembled PA coatings
Description: as §1, §2, §4

T1 sequence (P11362 22-822): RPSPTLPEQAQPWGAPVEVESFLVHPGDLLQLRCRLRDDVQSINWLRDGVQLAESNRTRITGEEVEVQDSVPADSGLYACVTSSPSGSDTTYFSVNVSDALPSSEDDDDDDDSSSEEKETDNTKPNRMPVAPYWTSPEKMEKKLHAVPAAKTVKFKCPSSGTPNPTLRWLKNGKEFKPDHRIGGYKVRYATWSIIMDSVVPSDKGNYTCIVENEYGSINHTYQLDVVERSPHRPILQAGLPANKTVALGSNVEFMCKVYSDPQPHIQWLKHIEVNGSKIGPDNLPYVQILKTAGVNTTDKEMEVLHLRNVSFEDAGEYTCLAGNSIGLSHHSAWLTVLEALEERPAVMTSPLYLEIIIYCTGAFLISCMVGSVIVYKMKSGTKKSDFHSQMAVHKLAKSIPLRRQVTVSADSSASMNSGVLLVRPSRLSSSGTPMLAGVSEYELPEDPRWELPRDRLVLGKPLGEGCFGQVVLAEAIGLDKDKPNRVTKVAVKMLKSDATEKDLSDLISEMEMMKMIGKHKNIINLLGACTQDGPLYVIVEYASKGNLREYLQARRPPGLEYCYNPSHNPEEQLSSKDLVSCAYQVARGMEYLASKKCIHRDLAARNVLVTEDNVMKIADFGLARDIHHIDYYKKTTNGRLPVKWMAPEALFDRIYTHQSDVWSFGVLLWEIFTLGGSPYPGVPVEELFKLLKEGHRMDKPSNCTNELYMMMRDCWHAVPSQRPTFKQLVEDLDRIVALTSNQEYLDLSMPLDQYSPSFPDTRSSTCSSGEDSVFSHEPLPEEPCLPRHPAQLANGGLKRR
T2 sequence (P11362 22-822): as above

Substance: native FGF-2: FGF-2 native protein (Peprotech), positive control
- percentage of proliferating EdU+ and SOX2+ cells [1]: increased
- levels of p-FGFR1 and downstream p-ERK1/2 [2]: high levels
- branching and vessel-like capillary network formation [3]: extensive branching and formation of vessel-like capillary networks
- P-FGFR-1 expression [4]: highly expressed
